In article PMC10769483, “Death by a thousand cuts through kinase inhibitor combinations that maximize selectivity and enable rational multitargeting” (eLife, 2023):

Key:
[1] = system: ABL1(F317L), FYN, and LYN; test: MMS multiple-target analysis, Davis et al. dataset

Row | Compound | concentration of component in Mixture A required to inhibit all on-targets by at least 90% [1] | concentration of component in Mixture B required to inhibit all on-targets by at least 90% (CDC2L5 and TRKC)
1 | CSc1cccc(Nc2ncc3cc(-c4c(Cl)cccc4Cl)c(=O)n(C)c3n2)c1 [PD-173955] | 4.69 nM | 
2 | Cc1ccc(F)c(NC(=O)Nc2ccc(-c3cccc4[nH]nc(N)c34)cc2)c1 [ABT-869, Linifanib] |  | 226 nM
3 | Cc1ccc(NC(=O)c2ccc(CN3CCN(C)CC3)cc2)cc1Nc1nc(-c2cccnc2)cs1 [masatinib, Masitinib] | 661 nM | 
4 | COc1cc2c(Oc3ccc(NC(=O)C4(C(=O)Nc5ccc(F)cc5)CC4)cc3F)ccnc2cc1OCCCN1CCOCC1 [EXEL-2880/GSK-1363089, Foretinib] |  | 40.0 nM
